Source: patent US20030158250A1, “Agents correcting gene expression regulatory error” (priority 2000, published 2003)

Columns and labels:
Type in all cases: cell-based
[1] = system: adenosine A2a receptor (ADORA2A); experiment: RT-PCR expression level of ADORA2A gene in monocytes; details: human monocytes, 35 PCR cycles
Procedure: (§1) Four-hundred milliliters of blood was collected from a human normal individual donor. The collected blood was diluted 2-folds with PBS(−), overlaid on Ficoll-paque (manufactured by Pharmacia), and centrifuged at 500×g for 20 minutes. The peripheral blood mononuclear cells (PBMCs) in the intermediate layer was collected with a pipette, and washed with RPMI 1640 medium (manufactured by Bio Whittaker). The collected PBMCs was suspended in a storage solution of 90% FCS (manufactured by JRH Biosciences)/10% dimethyl sulfoxide, and stored in liquid nitrogen. During the experiment, these stored PBMCs were rapidly melted in water bath at 37° C., and washed with RPMI 1640 medium containing 10 μg/ml Dnase (manufactured by Calbiochem). Thereafter, the number of living cells was calculated by trypan blue staining method, and subjected to each experiment.
(§2) PBMCs were suspended in RPMI 1640 medium containing 5% human serum of blood type-AB, 0.1 mM nonessential amino acid, 1 mM sodium pyruvate, 2 mM L-glutamine (hereinabove manufactured by Bio Whittaker), 10 mM HEPES (manufactured by nakalai tesque), and 1% streptomycin-penicillin (manufactured by Gibco BRL) (hereinafter simply referred to as “5HRPMI medium”) so as to have a concentration of 4×10^6 cells/ml. Thereafter, the suspension was spread on a 6-well cell culture plate (manufactured by Falcon) in a volume of 3 ml/well, and the cells were incubated in a wet-type incubator at 37° C. and 5% CO2 for 1.5 hours. After 1.5 hours, the non-adherent cells were removed by suction, and each well was washed with RPMI 1640 medium, and 2 ml of the 5HRPMI medium was added to the wells, to give monocytes.
(§3) To the monocytes obtained above was added in each well 8 μl of an aqueous DGE solution, or 8 μl of water as a control, and the cells were incubated in a wet-type incubator at 37° C. and 5% CO2 for 5 hours. Thereafter, with addition of 2 μl of a 1 μg/ml aqueous LPS solution or 2 μl of a 25 μM TPA dimethyl sulfoxide solution to each well, or with addition of neither of these substances thereto, the cells were cultured for additional 4 hours. Thereafter, RNA was prepared from each cell in accordance with the description of the kit using RNeasy Mini Kit (manufactured by QIAGEN, 74104). The group with addition of water alone or the aqueous DGE solution alone to the cells was set as a negative control, and the group with addition of water and the aqueous LPS solution or the aqueous TPA solution to the cells was set as a positive control.
(§4) A liquid mixture having a total volume of 60 μl of 0.5 μg of RNA prepared above, 10 mM Tris-HCl (pH 8.3), 50 mM KCl, 5 mM MgCl2, 1 mM dNTP mixtures, 150 pmol of Random 6 mers, 60 U Ribonuclease Inhibitor (manufactured by Takara Shuzo Co., Ltd., 2310A), and 15 U Reverse Transcriptase XL (AMV) (manufactured by Takara Shuzo Co., Ltd., 2620A) were incubated at 30° C. for 10 minutes and thereafter at 42° C. for 1 hour using a thermal cycler (GeneAmp PCR System 9600, manufactured by Applied Biosystems), and the mixture was heated at 99° C. for 5 minutes to deactivate the enzyme, to give cDNA.
(§5) Oligonucleotide primers for reaction of PCR were designed based on mRNA nucleotide sequence of each gene listed in the following tables, and synthesized in the same manner as above. In Tables 4 and 5, each gene evaluated in this Example, GenBank Accession NO, the name of oligonucleotide primers and SEQ ID NOs of the primers in Sequence Listing were listed. […]

[2] = system: COX2 mRNA; experiment: RT-PCR of COX2 mRNA in monocytes; details: human monocytes; for amplification of band ascribed to COX2 mRNA, stimulant alone: LPS or TPA alone, 4 hours, RT-PCR
Procedure: as §1, §2
as §3, with “control. […]” for “control.”

[3] = system: macrophage inflammatory protein-1-β (MIP1β); experiment: RT-PCR expression level of MIP1β gene in monocytes; details: human monocytes, 30 PCR cycles
Procedure: as §1, §2, §3, §4, §5

[4] = system: RANTES mRNA; experiment: RT-PCR of RANTES mRNA in monocytes; details: human monocytes
Procedure: as §1
PBMCs were suspended in RPMI 1640 medium containing 5% human serum of blood type-AB, 0.1 mM nonessential amino acid, 1 mM sodium pyruvate, 2 mM L-glutamine (hereinabove manufactured by Bio Whittaker), 10 mM HEPES (manufactured by nakalai tesque), and 1% streptomycin-penicillin (manufactured by Gibco BRL) (hereinafter simply referred to as “5HRPMI medium”) so as to have a concentration of 4×10^6 cells/ml. […]

[5] = system: interleukin-6 (IL-6); experiment: TPA-induced IL-6 production in peritoneal macrophage (ELISA); details: mouse peritoneal macrophage, final concentrations 20 μM and 10 μM, 14 hours, IL-6 in culture supernatant by ELISA
Procedure: Four milliliters of a 10% fetal bovine serum-containing RPMI 1640 medium (manufactured by Bio Whittaker, 12-702F) was intraperitoneally injected to ddy mouse (Nippon SLC, female, 7-weeks old), and the mouse was well massaged, and the medium was taken out to obtain peritoneal cells. The peritoneal cells were suspended in the 10% fetal bovine serum-containing RPMI 1640 medium so as to have a concentration of 10^6 cells/ml, and dispensed into 48-well microtiter plate in a volume of 500 μl each. The peritoneal cells were cultured at 37° C. for 2 hours in the presence of 5% CO2 gas. Thereafter, the culture supernatant was removed to give adherent cells to be used as peritoneal macrophage. To each well was freshly dispensed a Dulbecco's modified Eagle's medium (manufactured by Bio Whittaker; 12-917F) without phenol red containing 10% fetal bovine serum and 2 mM L-glutamine in a volume of 500 μl. […] The content of interleukin-6 (IL-6) in the culture supernatant was assayed by enzyme immuno-sandwich assay (ELISA: Matched antibody Pair SamplePak mouse IL-6, manufactured by Endogen). Here, the group with no addition of DGE and TPA aqueous solution (control) was set as a negative control, and the group with addition of TPA aqueous solution alone (control+TPA) was set as a positive control. In addition, all of the assays were carried out twice.

[6] = substance added alone, Con. (water) +
[7] = L + D: DGE and LPS, LPS alone +++
[8] = DGE 5 hours, then LPS 4 hours, RT-PCR band

| Compound | expression level of ADORA2A gene [1, 6] | amplification of band ascribed to COX2 mRNA, stimulant alone [2] | expression level of MIP1β gene [3, 6] | amplification of band ascribed to RANTES mRNA, stimulant alone ([4]; LPS alone, 4 hours, RT-PCR) | expression level of ADORA2A gene [1, 7] | expression level of ADORA2A gene ([1]; T + D: DGE and TPA, TPA alone +) | induction of COX2 mRNA by LPS, effect of DGE [2, 8] | induction of COX2 mRNA by TPA, effect of DGE ([2]; DGE 5 hours, then TPA 4 hours, RT-PCR band) | inhibition of TPA-induced IL-6 production [5] | expression level of MIP1β gene [3, 7] | expression level of MIP1β gene ([3]; T + D: DGE and TPA, TPA alone ++) | induction of RANTES mRNA by LPS, effect of DGE [4, 8] |
| --- | --- | --- | --- | --- | --- | --- | --- | --- | --- | --- | --- | --- |
| lipopolysaccharide [LPS, reference compound] | +++ | induction | +++ | induction |  |  |  |  |  |  |  |  |
| O=C1C=CC(CO)OC1O [DGE, L-glycero-1,5-epoxy-1αβ,6-dihydroxy-cis-hex-3-en-2-one] | +/− |  | +/− |  | − | − | inhibited | inhibited | inhibition of TPA-induced IL-6 production was found DGE-concentration dependently | +/− | +/− | inhibited |
| 12-o-tetradecanoylphorbol 13-acetate [TPA, reference compound] | + | induction | ++ |  |  |  |  |  |  |  |  |  |
